Reference: PubChem BioAssay (NCI)
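Exposure lasted 48 hours, with cells grown in 96-well plates and compounds tested at five concentrations. TGI is the concentration that stops growth completely.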

Tests used:
Assay in all cases: NCI tumour cell line growth inhibition, 48 h
NCI-H226 lung = test system: NCI-H226 lung
U251 CNS = test system: U251 CNS
SW-620 colon = test system: SW-620 colon
MOLT-4 leukemia = test system: MOLT-4 leukemia
HS 578T breast = test system: HS 578T breast
T-47D breast = test system: T-47D breast
SF-268 CNS = test system: SF-268 CNS
NCI-H522 lung = test system: NCI-H522 lung
HCC-2998 colon = test system: HCC-2998 colon
MDA-MB-231 breast = test system: MDA-MB-231 breast
RPMI-8226 leukemia = test system: RPMI-8226 leukemia
HOP-92 NSCLC = test system: HOP-92 NSCLC
HCT-15 colon = test system: HCT-15 colon
HOP-62 NSCLC = test system: HOP-62 NSCLC
MCF7 breast = test system: MCF7 breast
OVCAR-3 ovarian = test system: OVCAR-3 ovarian
BT-549 breast = test system: BT-549 breast
EKVX NSCLC = test system: EKVX NSCLC
SN12C renal = test system: SN12C renal
SK-MEL-2 melanoma = test system: SK-MEL-2 melanoma
SF-539 CNS = test system: SF-539 CNS
UO-31 renal = test system: UO-31 renal
HL-60(TB) leukemia = test system: HL-60(TB) leukemia
CCRF-CEM leukemia = test system: CCRF-CEM leukemia
ACHN renal = test system: ACHN renal
COLO 205 colon = test system: COLO 205 colon
CAKI-1 renal = test system: CAKI-1 renal
SK-OV-3 ovarian = test system: SK-OV-3 ovarian
786-0 renal = test system: 786-0 renal
PC-3 prostate = test system: PC-3 prostate
MALME-3M melanoma = test system: MALME-3M melanoma
UACC-62 melanoma = test system: UACC-62 melanoma
NCI/ADR-RES ovarian = test system: NCI/ADR-RES ovarian
RXF 393 renal = test system: RXF 393 renal
IGROV1 ovarian = test system: IGROV1 ovarian
SK-MEL-5 melanoma = test system: SK-MEL-5 melanoma
SK-MEL-28 melanoma = test system: SK-MEL-28 melanoma
SR leukemia = test system: SR leukemia
OVCAR-4 ovarian = test system: OVCAR-4 ovarian
A549 NSCLC = test system: A549 NSCLC
SF-295 CNS = test system: SF-295 CNS
M14 melanoma = test system: M14 melanoma
NCI-H460 lung = test system: NCI-H460 lung
OVCAR-5 ovarian = test system: OVCAR-5 ovarian
HT29 colon = test system: HT29 colon
UACC-257 melanoma = test system: UACC-257 melanoma
HCT-116 colon = test system: HCT-116 colon
LOX IMVI melanoma = test system: LOX IMVI melanoma
OVCAR-8 ovarian = test system: OVCAR-8 ovarian
DU-145 prostate = test system: DU-145 prostate
NCI-H23 lung = test system: NCI-H23 lung
MDA-N = test system: MDA-N
SNB-75 CNS = test system: SNB-75 CNS
TK-10 renal = test system: TK-10 renal
MDA-MB-435 = test system: MDA-MB-435
KM12 colon = test system: KM12 colon
K-562 leukemia = test system: K-562 leukemia
SNB-19 CNS = test system: SNB-19 CNS
A498 renal = test system: A498 renal

O=C1OC(C2Cc3ccccc3C2=O)c2ccccc21 (stereo unspecified)
TGI (NCI-H226 lung): > 100 µM | TGI (U251 CNS): > 100 µM | TGI (SW-620 colon): > 100 µM | TGI (MOLT-4 leukemia): > 100 µM | TGI (HS 578T breast): > 100 µM | TGI (T-47D breast): > 100 µM | TGI (SF-268 CNS): > 100 µM | TGI (NCI-H522 lung): > 100 µM | TGI (HCC-2998 colon): > 100 µM | TGI (MDA-MB-231 breast): > 100 µM | TGI (RPMI-8226 leukemia): > 100 µM | TGI (HOP-92 NSCLC): > 100 µM | TGI (HCT-15 colon): > 100 µM | TGI (HOP-62 NSCLC): > 100 µM | TGI (MCF7 breast): > 100 µM | TGI (OVCAR-3 ovarian): > 100 µM | TGI (BT-549 breast): > 100 µM | TGI (EKVX NSCLC): > 100 µM | TGI (SN12C renal): > 100 µM | TGI (SK-MEL-2 melanoma): > 100 µM | TGI (SF-539 CNS): > 100 µM | TGI (UO-31 renal): > 100 µM | TGI (HL-60(TB) leukemia): > 100 µM | TGI (CCRF-CEM leukemia): > 100 µM | TGI (ACHN renal): > 100 µM | TGI (COLO 205 colon): > 100 µM | TGI (CAKI-1 renal): > 100 µM | TGI (SK-OV-3 ovarian): > 100 µM | TGI (786-0 renal): > 100 µM | TGI (PC-3 prostate): > 100 µM | TGI (MALME-3M melanoma): > 100 µM | TGI (UACC-62 melanoma): > 100 µM | TGI (NCI/ADR-RES ovarian): > 100 µM | TGI (RXF 393 renal): > 100 µM | TGI (IGROV1 ovarian): > 100 µM | TGI (SK-MEL-5 melanoma): > 100 µM | TGI (SK-MEL-28 melanoma): > 100 µM | TGI (SR leukemia): > 100 µM | TGI (OVCAR-4 ovarian): > 100 µM | TGI (A549 NSCLC): > 100 µM | TGI (SF-295 CNS): > 100 µM | TGI (M14 melanoma): > 100 µM | TGI (NCI-H460 lung): > 100 µM | TGI (OVCAR-5 ovarian): > 100 µM | TGI (HT29 colon): 60.5 µM | TGI (UACC-257 melanoma): > 100 µM | TGI (HCT-116 colon): > 100 µM | TGI (LOX IMVI melanoma): > 100 µM | TGI (OVCAR-8 ovarian): > 100 µM | TGI (DU-145 prostate): > 100 µM | TGI (NCI-H23 lung): > 100 µM | TGI (MDA-N): > 100 µM | TGI (SNB-75 CNS): > 100 µM | TGI (TK-10 renal): > 100 µM | TGI (MDA-MB-435): > 100 µM | TGI (KM12 colon): > 100 µM | TGI (K-562 leukemia): > 100 µM | TGI (SNB-19 CNS): > 100 µM

CCSCC(=O)N1CCc2c([nH]c3ccccc23)C1=O
TGI (NCI-H226 lung): > 100 µM | TGI (U251 CNS): > 100 µM | TGI (SW-620 colon): > 100 µM | TGI (MOLT-4 leukemia): > 100 µM | TGI (HS 578T breast): > 100 µM | TGI (T-47D breast): > 100 µM | TGI (SF-268 CNS): > 100 µM | TGI (NCI-H522 lung): > 100 µM | TGI (HCC-2998 colon): > 100 µM | TGI (MDA-MB-231 breast): > 100 µM | TGI (HOP-92 NSCLC): 92.8 µM | TGI (HCT-15 colon): > 100 µM | TGI (HOP-62 NSCLC): > 100 µM | TGI (MCF7 breast): > 100 µM | TGI (OVCAR-3 ovarian): > 100 µM | TGI (BT-549 breast): > 100 µM | TGI (EKVX NSCLC): > 100 µM | TGI (SN12C renal): > 100 µM | TGI (SK-MEL-2 melanoma): > 100 µM | TGI (SF-539 CNS): > 100 µM | TGI (UO-31 renal): > 100 µM | TGI (HL-60(TB) leukemia): > 100 µM | TGI (CCRF-CEM leukemia): > 100 µM | TGI (ACHN renal): > 100 µM | TGI (COLO 205 colon): > 100 µM | TGI (CAKI-1 renal): > 100 µM | TGI (SK-OV-3 ovarian): > 100 µM | TGI (786-0 renal): > 100 µM | TGI (PC-3 prostate): > 100 µM | TGI (MALME-3M melanoma): > 100 µM | TGI (UACC-62 melanoma): > 100 µM | TGI (NCI/ADR-RES ovarian): > 100 µM | TGI (RXF 393 renal): > 100 µM | TGI (IGROV1 ovarian): > 100 µM | TGI (SK-MEL-5 melanoma): > 100 µM | TGI (SK-MEL-28 melanoma): > 100 µM | TGI (SR leukemia): > 100 µM | TGI (OVCAR-4 ovarian): > 100 µM | TGI (A549 NSCLC): > 100 µM | TGI (SF-295 CNS): > 100 µM | TGI (M14 melanoma): > 100 µM | TGI (NCI-H460 lung): > 100 µM | TGI (OVCAR-5 ovarian): > 100 µM | TGI (HT29 colon): > 100 µM | TGI (UACC-257 melanoma): > 100 µM | TGI (HCT-116 colon): > 100 µM | TGI (LOX IMVI melanoma): > 100 µM | TGI (OVCAR-8 ovarian): > 100 µM | TGI (DU-145 prostate): > 100 µM | TGI (NCI-H23 lung): > 100 µM | TGI (MDA-N): > 100 µM | TGI (SNB-75 CNS): > 100 µM | TGI (TK-10 renal): > 100 µM | TGI (MDA-MB-435): > 100 µM | TGI (KM12 colon): > 100 µM | TGI (K-562 leukemia): > 100 µM | TGI (SNB-19 CNS): > 100 µM

CN(C)Cc1cc(C(C)(C)C)cc(CNC2CCCCC2)c1O
TGI (U251 CNS): > 100 µM | TGI (SW-620 colon): > 100 µM | TGI (MOLT-4 leukemia): 33.5 µM | TGI (A498 renal): > 100 µM | TGI (HS 578T breast): > 100 µM | TGI (T-47D breast): > 100 µM | TGI (SF-268 CNS): 47.4 µM | TGI (NCI-H522 lung): 60.4 µM | TGI (HCC-2998 colon): 23.7 µM | TGI (MDA-MB-231 breast): > 100 µM | TGI (RPMI-8226 leukemia): 57.9 µM | TGI (HOP-92 NSCLC): 59.7 µM | TGI (HCT-15 colon): > 100 µM | TGI (HOP-62 NSCLC): > 100 µM | TGI (MCF7 breast): > 100 µM | TGI (OVCAR-3 ovarian): > 100 µM | TGI (BT-549 breast): > 100 µM | TGI (EKVX NSCLC): > 100 µM | TGI (SN12C renal): > 100 µM | TGI (SK-MEL-2 melanoma): > 100 µM | TGI (SF-539 CNS): 63.5 µM | TGI (UO-31 renal): 34.6 µM | TGI (CCRF-CEM leukemia): 43.7 µM | TGI (ACHN renal): > 100 µM | TGI (COLO 205 colon): 33.3 µM | TGI (CAKI-1 renal): > 100 µM | TGI (SK-OV-3 ovarian): > 100 µM | TGI (786-0 renal): > 100 µM | TGI (PC-3 prostate): > 100 µM | TGI (MALME-3M melanoma): 64 µM | TGI (UACC-62 melanoma): > 100 µM | TGI (NCI/ADR-RES ovarian): 69.4 µM | TGI (RXF 393 renal): > 100 µM | TGI (IGROV1 ovarian): > 100 µM | TGI (SK-MEL-5 melanoma): 30.2 µM | TGI (SK-MEL-28 melanoma): > 100 µM | TGI (SR leukemia): 71.8 µM | TGI (OVCAR-4 ovarian): > 100 µM | TGI (A549 NSCLC): > 100 µM | TGI (SF-295 CNS): 57.1 µM | TGI (M14 melanoma): 34.4 µM | TGI (NCI-H460 lung): 44.6 µM | TGI (OVCAR-5 ovarian): 73.3 µM | TGI (HT29 colon): 54.6 µM | TGI (UACC-257 melanoma): 79.8 µM | TGI (HCT-116 colon): 71.5 µM | TGI (LOX IMVI melanoma): 76.5 µM | TGI (DU-145 prostate): > 100 µM | TGI (NCI-H23 lung): > 100 µM | TGI (MDA-N): > 100 µM | TGI (SNB-75 CNS): > 100 µM | TGI (TK-10 renal): > 100 µM | TGI (MDA-MB-435): > 100 µM | TGI (KM12 colon): > 100 µM | TGI (K-562 leukemia): 76.2 µM | TGI (SNB-19 CNS): > 100 µM
